The values below come from patent US20150374815A1, “METHODS AND COMPOSITIONS FOR TREATMENT WITH SYNTHETIC NANOCARRIERS AND IMMUNE CHECKPOINT INHIBITORS” (Selecta Biosciences, Inc., priority 2014, published 2015).

One assay has as its system IL-6. Description: Serum cytokine induction after NC-CpG or free CpG inoculation (ELISA). The assay is classed as in vivo. The note with it: s.c.; 100 μg NC-CpG (containing 5% CpG-1826) or 5 μg free CpG-1826; pooled sera, 3/group; FIG. 4. As for the experimental part: (§1) TNF-α and IL-6 were induced in sera of NC-CpG- and free CpG-inoculated animals. Animal groups were inoculated (s.c.) either with 100 μg of NC-CpG (containing 5% CpG-1826) or with 5 μg of free CpG-1826. At different time-points post inoculation serum was collected from the animals (3/group) by terminal bleed, pooled and assayed for cytokine presence in ELISA (BD).

The next assay relates to TNF-α. The assay is described as above. The assay is classed as in vivo. The note with it: s.c.; 100 μg NC-CpG (containing 5% CpG-1826) or 5 μg free CpG-1826; pooled sera, 3/group; FIG. 4. The method, then: as §1

“Also recorded” adds a separate entry of the source.

For the substance “5′-TCCATGACGTTCCTGACGTT-3′ [free CpG]”, the “induction of IL-6 in serum” value with IL-6 was “induced; also recorded: substantially higher induction”. In the assay on TNF-α, the “induction of TNF-α in serum” value is listed as “induced; also recorded: substantially higher induction”.
